This is an account of results in ChEMBL document CHEMBL1128922, “Thiophenesulfonamides as endothelin receptor antagonists” (Bioorg Med Chem Lett, 1996).

The target of test [1] is T1, Endothelin-1 receptor (Homo sapiens, UniProt P25101).
T1 sequence (P25101 whole entry): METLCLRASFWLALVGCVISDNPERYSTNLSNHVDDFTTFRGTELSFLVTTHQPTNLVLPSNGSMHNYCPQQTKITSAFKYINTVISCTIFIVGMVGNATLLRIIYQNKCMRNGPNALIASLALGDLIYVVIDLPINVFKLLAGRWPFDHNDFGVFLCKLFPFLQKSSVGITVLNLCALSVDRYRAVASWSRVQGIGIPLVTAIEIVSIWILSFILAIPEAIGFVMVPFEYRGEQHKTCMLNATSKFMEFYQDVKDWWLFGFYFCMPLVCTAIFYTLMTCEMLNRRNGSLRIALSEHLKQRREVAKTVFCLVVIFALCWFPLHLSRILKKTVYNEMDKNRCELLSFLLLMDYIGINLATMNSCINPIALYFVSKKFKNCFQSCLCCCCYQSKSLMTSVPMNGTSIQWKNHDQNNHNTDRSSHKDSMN
Briefly: Compound was tested for binding affinity against Endothelin A receptor.

Test [2] addresses T2, Endothelin receptor type B (Homo sapiens, UniProt P24530).
T2 sequence (P24530 whole entry): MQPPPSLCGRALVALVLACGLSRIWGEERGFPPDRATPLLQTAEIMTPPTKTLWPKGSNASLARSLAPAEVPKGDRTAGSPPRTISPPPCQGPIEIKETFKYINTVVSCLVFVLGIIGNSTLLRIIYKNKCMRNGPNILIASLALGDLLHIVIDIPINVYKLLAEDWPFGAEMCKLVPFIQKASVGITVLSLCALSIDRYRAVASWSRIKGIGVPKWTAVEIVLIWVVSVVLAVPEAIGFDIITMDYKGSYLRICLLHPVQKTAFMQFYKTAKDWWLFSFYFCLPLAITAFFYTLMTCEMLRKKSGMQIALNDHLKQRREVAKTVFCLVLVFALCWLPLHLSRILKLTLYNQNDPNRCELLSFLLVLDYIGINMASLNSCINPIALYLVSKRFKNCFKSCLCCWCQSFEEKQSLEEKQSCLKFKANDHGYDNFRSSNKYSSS
Briefly: Compound was tested for binding affinity against Endothelin B receptor.

`Cc1ccccc1-c1ccsc1S(=O)(=O)Nc1onc(C)c1Br`: the figures for the IC50 in test [1] and in test [2] were 306 nM and over 100000 nM, respectively. In the same order, the values of `CCCc1ccc(-c2ccsc2S(=O)(=O)Nc2onc(C)c2Br)c(C)c1` are 42.9 nM and 2910 nM.

`Cc1noc(NS(=O)(=O)c2sccc2-c2ccc(CC(C)C)cc2)c1Br`: the 50% inhibitory concentration (IC50) (as a rule, the concentration that gives 50% inhibition) in test [2] amounted to 2900 nM. As to `COc1ccc(-c2ccsc2S(=O)(=O)Nc2onc(C)c2Br)cc1`, the IC50 stood at 334 nM in test [1] and 62100 nM in test [2]. For the compound `Cc1noc(NS(=O)(=O)c2ccccc2)c1Br`, the IC50 in test [1] was 2510 nM; in test [2], over 100000 nM. With `Cc1noc(NS(=O)(=O)c2ccccc2-c2ccccc2)c1Br`, the values for the IC50 in test [1] and in test [2] were 16.2 nM and over 100000 nM, respectively. In test [1], `Cc1noc(NS(=O)(=O)c2sccc2-c2ccc(CCC(C)C)cc2)c1Br` showed an IC50 of 182 nM. For the compound `Cc1noc(NS(=O)(=O)c2cccs2)c1Br`, the IC50 is 1910 nM in test [1] and over 100000 nM in test [2]. In the case of `Cc1cc(CCC(C)C)ccc1-c1ccsc1S(=O)(=O)Nc1onc(C)c1Br`, the IC50 in test [1] came out at 115 nM; in test [2] it was 2450 nM. The compound `CCCc1ccc(-c2ccsc2S(=O)(=O)Nc2onc(C)c2Br)cc1` displayed an IC50 in test [2] of 8160 nM. For the compound `Cc1cc(CC(C)C)ccc1-c1ccsc1S(=O)(=O)Nc1onc(C)c1Br`, the IC50 in test [1] stood at 47.9 nM; in test [2], 1510 nM. In the same order, the values of `Cc1noc(NS(=O)(=O)c2cc(-c3ccccc3)cs2)c1Br` are 3390 nM and 13500 nM. In the same order, the values of `Cc1noc(NS(=O)(=O)c2ccsc2)c1Br` are 2750 nM and over 100000 nM. In the same order, the values of `Cc1noc(NS(=O)(=O)c2sccc2Oc2ccccc2)c1Br` are 1450 nM and 35500 nM. With `COc1cccc(-c2ccsc2S(=O)(=O)Nc2onc(C)c2Br)c1`, the values for the IC50 in test [1] and in test [2] were 1320 nM and 56300 nM, respectively. Taken in the same sequence, the figures for `Cc1noc(NS(=O)(=O)c2sccc2-c2ccccc2)c1Br` were 819 nM and 64400 nM. Taken in the same sequence, the figures for `Cc1noc(NS(=O)(=O)c2ccsc2-c2ccccc2)c1Br` were 603 nM and 74100 nM. Turning to `Cc1noc(NS(=O)(=O)c2sccc2Cc2ccccc2)c1Br`, the IC50 worked out at 2600 nM in test [1] and 39800 nM in test [2].

Consider `Cc1ccc(-c2ccsc2S(=O)(=O)Nc2onc(C)c2Br)cc1`, for which the IC50 in test [1] was 315 nM; in test [2], 95500 nM.
